By EC50 is commonly meant the concentration at which the effect is half-maximal. For orientation: IC50 means the concentration that inhibits the measured activity by half.

Test [1] has as its system Jurkat (clone E6-1) cells with NFAT luciferase reporter. The experiment in a line: Jurkat reporter assay (NFAT Luciferase). Type of test: cell-based. The following applies: Homo sapiens; Jurkat NFAT luciferase reporter cells, anti-CD3 stimulation, 6 hr; read-out: Jurkat NFAT EC50. In general terms: In a reporter assay the amount or activity of a reporter protein is the signal.

Test [2] addresses T1, Recombinant human c-Cbl (aa 47-435) (Homo sapiens, UniProt P22681).
T1 sequence (P22681 47-435): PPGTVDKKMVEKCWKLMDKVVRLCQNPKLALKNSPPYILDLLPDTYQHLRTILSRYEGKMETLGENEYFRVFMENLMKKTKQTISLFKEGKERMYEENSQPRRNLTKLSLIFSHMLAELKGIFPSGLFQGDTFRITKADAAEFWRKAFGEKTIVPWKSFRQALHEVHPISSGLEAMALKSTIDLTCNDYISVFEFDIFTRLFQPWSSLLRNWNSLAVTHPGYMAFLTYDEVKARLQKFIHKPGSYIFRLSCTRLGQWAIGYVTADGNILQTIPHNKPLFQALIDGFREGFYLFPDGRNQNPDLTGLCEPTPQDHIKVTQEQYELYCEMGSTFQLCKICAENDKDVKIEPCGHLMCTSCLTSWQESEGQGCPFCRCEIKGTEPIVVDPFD
The experiment in a line: c-Cbl Biochemical Assay (TR-FRET). The following applies: hc-Cbl Biochemical Assay (TR-FRET); read-out: TR-FRET hcCbl IC50.

Test [3] addresses Recombinant human Cbl-b (aa 36-427) (Homo sapiens, UniProt Q13191). The experiment in a line: Cbl-b Biochemical Assay (TR-FRET). The settings on record: read-out: TR-FRET hCbl-b IC50. For orientation: Time-resolved FRET reads energy transfer from a long-lived donor to a nearby acceptor.

Chain of Recombinant human Cbl-b (aa 36-427) (Q13191 36-427): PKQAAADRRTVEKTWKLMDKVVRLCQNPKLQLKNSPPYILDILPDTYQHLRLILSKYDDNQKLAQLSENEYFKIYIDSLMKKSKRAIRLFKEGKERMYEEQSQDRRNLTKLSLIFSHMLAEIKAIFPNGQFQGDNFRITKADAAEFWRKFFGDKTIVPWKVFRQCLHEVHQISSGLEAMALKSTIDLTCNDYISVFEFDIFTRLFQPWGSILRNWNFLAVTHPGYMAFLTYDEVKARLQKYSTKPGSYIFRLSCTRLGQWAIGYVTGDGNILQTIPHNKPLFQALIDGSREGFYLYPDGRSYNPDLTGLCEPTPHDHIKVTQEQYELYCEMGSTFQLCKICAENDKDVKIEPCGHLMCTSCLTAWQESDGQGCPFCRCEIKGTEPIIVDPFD

Take `Cn1cnnc1-c1cc(F)ccc1-c1cccc(-c2nc3cc(CN4CCCC[C@@H]4CO)cc(C(F)(F)F)c3o2)c1` [IV-2, (R)-(1-((2-(4′-Fluoro-2′-(4-methyl-4H-1,2,4-triazol-3-yl)-[1,1′-biphenyl]-3-yl)-7-(trifluoromethyl)benzo[d]oxazol-5-yl)methyl)piperidin-2-yl)methanol]: the 50% effective concentration (EC50) in test [1] was in the range of 200 to 1000 nM. In addition, the IC50 in test [2] is 200 to 1000 nM; in test [3] it was less than 200 nM.

Regarding `Cn1cnnc1-c1cc(F)ccc1-c1cccc(-c2nc3cc(CNCC4(O)CCC4)c(F)c(F)c3o2)c1` [IW-1, 1-((((6,7-Difluoro-2-(4′-fluoro-2′-(4-methyl-4H-1,2,4-triazol-3-yl)-[1,1′-biphenyl]-3-yl)benzo[d]oxazol-5-yl)methyl)amino)methyl)cyclobutan-1-ol], the EC50 in test [1] was less than 200 nM. Besides, the IC50 in test [2] and in test [3] was less than 200 nM each time.

For `Cn1cnnc1-c1cc(F)ccc1-c1cccc(-c2nc3cc(CNCC4CCC4)c(F)c(F)c3o2)c1` [IX-1, 1-Cyclobutyl-N-((6,7-difluoro-2-(4′-fluoro-2′-(4-methyl-4H-1,2,4-triazol-3-yl)-[1,1′-biphenyl]-3-yl)benzo[d]oxazol-5-yl)methyl)methanamine], the EC50 in test [1] is less than 200 nM. In addition, the IC50 in test [2] and in test [3] was less than 200 nM in each case.

In the case of `COCCNCc1cc2nc(-c3cccc(-c4ccc(F)cc4-c4nncn4C)c3)oc2c(F)c1F` [IY-1, N-((6,7-Difluoro-2-(4′-fluoro-2′-(4-methyl-4H-1,2,4-triazol-3-yl)-[1,1′-biphenyl]-3-yl)benzo[d]oxazol-5-yl)methyl)-2-methoxyethan-1-amine], the concentration for a half-maximal effect (EC50) in test [1] is less than 200 nM. In addition, the IC50 in test [2] and in test [3] was less than 200 nM each time.

Take `Cn1cnnc1-c1cc(F)ccc1-c1cccc(-c2nc3cc(CNCC4(O)CCC4)cc(F)c3o2)c1` [IZ-1, 1-((((7-Fluoro-2-(4′-fluoro-2′-(4-methyl-4H-1,2,4-triazol-3-yl)-[1,1′-biphenyl]-3-yl)benzo[d]oxazol-5-yl)methyl)amino)methyl)cyclobutan-1-ol]: in test [1], the EC50 is less than 200 nM. For the same compound, the 50% inhibitory concentration (IC50) in test [2] and in test [3] was less than 200 nM throughout.

Consider `Cn1cnnc1-c1cc(F)ccc1-c1cccc(-c2nc3cc(CN4CCCC[C@H]4CO)cc(C(F)(F)F)c3o2)c1` [JB-2, (S)-(1-((2-(4′-Fluoro-2′-(4-methyl-4H-1,2,4-triazol-3-yl)-[1,1′-biphenyl]-3-yl)-7-(trifluoromethyl)benzo[d]oxazol-5-yl)methyl)piperidin-2-yl)methanol], for which the EC50 in test [1] was in the range of 1000 to 10000 nM. Moreover, the half-maximal inhibitory concentration (IC50) in test [2] is 1000 to 10000 nM; in test [3] it was less than 200 nM.

For `COCCNCc1cc(C)c2oc(-c3cccc(-c4ccc(F)cc4-c4nncn4C)c3)nc2c1F` [JC-1, N-((4-Fluoro-2-(4′-fluoro-2′-(4-methyl-4H-1,2,4-triazol-3-yl)-[1,1′-biphenyl]-3-yl)-7-methylbenzo[d]oxazol-5-yl)methyl)-2-methoxyethan-1-amine], in test [1], the half-maximal effective concentration (EC50) was in the range of 1000 to 10000 nM. Besides, the values for the IC50 in test [2] and in test [3] were 1000 to 10000 nM and 200 to 1000 nM, respectively.

Turning to `Cn1cnnc1-c1cc(F)ccc1-c1cccc(-c2nc3cc(CNCC(C)(C)O)c(F)c(F)c3o2)c1` [JD-1, 1-(((6,7-Difluoro-2-(4′-fluoro-2′-(4-methyl-4H-1,2,4-triazol-3-yl)-[1,1′-biphenyl]-3-yl)benzo[d]oxazol-5-yl)methyl)amino)-2-methylpropan-2-ol], the EC50 in test [1] was less than 200 nM. For the same compound, the IC50 in test [2] and in test [3] was less than 200 nM in each case.

As to `Cn1cnnc1-c1cc(F)ccc1-c1cccc(-c2nc3cc(CNCC4COC4)c(F)c(F)c3o2)c1` [JE-1, 1-(6,7-Difluoro-2-(4′-fluoro-2′-(4-methyl-4H-1,2,4-triazol-3-yl)-[1,1′-biphenyl]-3-yl)benzo[d]oxazol-5-yl)-N-(oxetan-3-ylmethyl)methanamine], the 50% effective concentration (EC50) in test [1] was less than 200 nM. Besides, the half-maximal inhibitory concentration (IC50) is 200 to 1000 nM in test [2] and less than 200 nM in test [3].

On to `Cn1cnnc1-c1cc(F)ccc1-c1cccc(-c2nc3cc(CNC4CCC4)c(F)c(F)c3o2)c1` [JF-1, N-((6,7-Difluoro-2-(4′-fluoro-2′-(4-methyl-4H-1,2,4-triazol-3-yl)-[1,1′-biphenyl]-3-yl)benzo[d]oxazol-5-yl)methyl)cyclobutanamine], for which the EC50 in test [1] is less than 200 nM. Also, the IC50 in test [2] is 200 to 1000 nM; in test [3], less than 200 nM.

Consider `Cn1cnnc1-c1cc(F)ccc1-c1cccc(-c2nc3cc(CNCC4(O)CCC4)cc(C4CC4)c3o2)c1` [JG-1, 1-((((7-Cyclopropyl-2-(4′-fluoro-2′-(4-methyl-4H-1,2,4-triazol-3-yl)-[1,1′-biphenyl]-3-yl)benzo[d]oxazol-5-yl)methyl)amino)methyl)cyclobutan-1-ol], for which the EC50 in test [1] was less than 200 nM. The half-maximal inhibitory concentration (IC50) in test [2] and in test [3] was less than 200 nM in each case.

With `COCCNCc1cc(C2CC2)c2oc(-c3cccc(-c4ccc(F)cc4-c4nncn4C)c3)nc2c1` [JH-1, N-((7-Cyclopropyl-2-(4′-fluoro-2′-(4-methyl-4H-1,2,4-triazol-3-yl)-[1,1′-biphenyl]-3-yl)benzo[d]oxazol-5-yl)methyl)-2-methoxyethan-1-amine], in test [1], the EC50 is less than 200 nM. Moreover, the 50% inhibitory concentration (IC50) in test [2] and in test [3] was less than 200 nM in each case.

For the compound `Cn1cnnc1-c1cc(F)ccc1-c1cccc(-c2nc3cc(CN[C@@H]4CCC[C@@]4(O)C(F)(F)F)cc(C(F)(F)F)c3o2)c1` [JI-3, (1S,2R)-2-(((2-(4′-Fluoro-2′-(4-methyl-4H-1,2,4-triazol-3-yl)-[1,1′-biphenyl]-3-yl)-7-(trifluoromethyl)benzo[d]oxazol-5-yl)methyl)amino)-1-(trifluoromethyl)cyclopentan-1-ol], the half-maximal effective concentration (EC50) in test [1] is less than 200 nM. The half-inhibitory concentration (IC50) in test [2] and in test [3] was less than 200 nM each time.

As to `CN(Cc1cc2nc(-c3cccc(-c4ccc(F)cc4-c4nncn4C)c3)oc2c(F)c1F)[C@@H]1CCC[C@@H]1O` [JJ-3, (1S,2R)-2-(((6,7-Difluoro-2-(4′-fluoro-2′-(4-methyl-4H-1,2,4-triazol-3-yl)-[1,1′-biphenyl]-3-yl)benzo[d]oxazol-5-yl)methyl)(methyl)amino)cyclopentan-1-ol], the concentration giving a half-maximal response (EC50) in test [1] lay in the range of 200 to 1000 nM. Moreover, the IC50 in test [2] and in test [3] was less than 200 nM each time.

As for `COCCNC(COC)c1cc(C)c2oc(-c3cccc(-c4ccc(F)cc4-c4nncn4C)c3)nc2c1` (stereo not drawn) [JK-7, 1-(2-(4′-Fluoro-2′-(4-methyl-4H-1,2,4-triazol-3-yl)-[1,1′-biphenyl]-3-yl)-7-methylbenzo[d]oxazol-5-yl)-2-methoxy-N-(2-methoxyethyl)ethan-1-amine], in test [1], the EC50 fell in the range of 1000 to 10000 nM. Moreover, the concentration for half-maximal inhibition (IC50) in test [2] is 200 to 1000 nM; in test [3], less than 200 nM.

In the case of `Cn1cnnc1-c1cc(F)ccc1-c1cc(-c2nc3cc(CNCC(C)(C)O)cc(C(F)(F)F)c3o2)cc(C2CC2)c1` [JL-1, 1-(((2-(5-Cyclopropyl-4′-fluoro-2′-(4-methyl-4H-1,2,4-triazol-3-yl)-[1,1′-biphenyl]-3-yl)-7-(trifluoromethyl)benzo[d]oxazol-5-yl)methyl)amino)-2-methylpropan-2-ol], the EC50 in test [1] is less than 200 nM. Further, the half-maximal inhibitory concentration (IC50) in test [2] and in test [3] was less than 200 nM throughout.

As to `Cn1cnnc1-c1cc(F)ccc1-c1cc(-c2nc3cc(CN[C@@H]4CCC[C@@H]4O)cc(F)c3o2)cc(C2CC2)c1` [JM-4, (1S,2R)-2-(((2-(5-Cyclopropyl-4′-fluoro-2′-(4-methyl-4H-1,2,4-triazol-3-yl)-[1,1′-biphenyl]-3-yl)-7-fluorobenzo[d]oxazol-5-yl)methyl)amino)cyclopentan-1-ol], in test [1], the EC50 is less than 200 nM. The half-inhibitory concentration (IC50) in test [2] and in test [3] was less than 200 nM each time.

`Cn1cnnc1-c1cc(F)ccc1-c1cccc(-c2nc3cc(CNCC(C)(C)O)cc(F)c3o2)c1` [JN-1, 1-(((7-Fluoro-2-(4′-fluoro-2′-(4-methyl-4H-1,2,4-triazol-3-yl)-[1,1′-biphenyl]-3-yl)benzo[d]oxazol-5-yl)methyl)amino)-2-methylpropan-2-ol]: in test [1], the concentration for a half-maximal effect (EC50) is less than 200 nM. In addition, the 50% inhibitory concentration (IC50) in test [2] and in test [3] was less than 200 nM in each case.

Regarding `Cn1cnnc1-c1cc(F)ccc1-c1cc(-c2nc3cc(CNCC4CCC4)cc(F)c3o2)cc(C2CC2)c1` [JO-1, 1-Cyclobutyl-N-((2-(5-cyclopropyl-4′-fluoro-2′-(4-methyl-4H-1,2,4-triazol-3-yl)-[1,1′-biphenyl]-3-yl)-7-fluorobenzo[d]oxazol-5-yl)methyl)methanamine], the concentration giving a half-maximal response (EC50) in test [1] was less than 200 nM. For the same compound, the IC50 in test [2] and in test [3] was less than 200 nM in each case.

For the compound `C[C@H](O)CNCc1cc(F)c2oc(-c3cccc(-c4ccc(F)cc4-c4nncn4C)c3)nc2c1` [JP-1, (S)-1-(((7-Fluoro-2-(4′-fluoro-2′-(4-methyl-4H-1,2,4-triazol-3-yl)-[1,1′-biphenyl]-3-yl)benzo[d]oxazol-5-yl)methyl)amino)propan-2-ol], in test [1], the EC50 is less than 200 nM. In addition, the IC50 in test [2] and in test [3] was less than 200 nM throughout.

Values taken from US20250163038A1, “CBL-B MODULATORS AND USES THEREOF” (Nimbus Clio, Inc., priority 2021, published 2025).
